Tested on: 885724-159-R-J1-PDC KRAS PDC multicell spheroid viability
Assay: Anticancer human tumor 885724-159-R-J1-PDC patient-derived pancreatic adenocarcinoma cell line growth inhibition [KRAS2]
Conditions: for IC50: curve of first compound; for viability, T/C: stronger effect = lower value
Procedure, shortened: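 Combination screen of spheroid viability in tumor-cell co-cultures with endothelial (HUVEC) and mesenchymal stem cell stroma. Each agent was tested in half-log dilutions, topping at clinical Cmax or at 10 microM without a known Cmax.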

[1] = second compound 0.1 µM, first compound 0.01 µM
[2] = second compound 0.1 µM, first compound 0.0316 µM
[3] = second compound 0.1 µM, first compound 0.1 µM
[4] = second compound 0.1 µM, first compound 0.316 µM
[5] = second compound 0.1 µM, first compound 1 µM
[6] = second compound 0.1 µM, first compound 3.16 µM
[7] = second compound 0.316 µM, first compound 0.01 µM
[8] = second compound 0.316 µM, first compound 0.0316 µM
[9] = second compound 0.316 µM, first compound 0.1 µM
[10] = second compound 0.316 µM, first compound 0.316 µM
[11] = second compound 0.316 µM, first compound 1 µM
[12] = second compound 0.316 µM, first compound 3.16 µM
[13] = second compound 1 µM, first compound 0.01 µM
[14] = second compound 1 µM, first compound 0.0316 µM
[15] = second compound 1 µM, first compound 0.1 µM
[16] = second compound 1 µM, first compound 0.316 µM
[17] = second compound 1 µM, first compound 1 µM
[18] = second compound 1 µM, first compound 3.16 µM
[19] = second compound 3.16 µM, first compound 0.01 µM
[20] = second compound 3.16 µM, first compound 0.0316 µM
[21] = second compound 3.16 µM, first compound 0.1 µM
[22] = second compound 3.16 µM, first compound 0.316 µM
[23] = second compound 3.16 µM, first compound 1 µM
[24] = second compound 3.16 µM, first compound 3.16 µM
[25] = second compound 10 µM, first compound 0.01 µM
[26] = second compound 10 µM, first compound 0.0316 µM
[27] = second compound 10 µM, first compound 0.1 µM
[28] = second compound 10 µM, first compound 0.316 µM
[29] = second compound 10 µM, first compound 1 µM
[30] = second compound 10 µM, first compound 3.16 µM
[31] = second compound 0.1 µM, first compound 10 µM
[32] = second compound 0.316 µM, first compound 10 µM
[33] = second compound 1 µM, first compound 10 µM
[34] = second compound 3.16 µM, first compound 10 µM
[35] = second compound 10 µM, first compound 10 µM
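Also: spheroids exposed to agents for 7 days before readout.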

Row | Compound | IC50 (second compound 0.1 µM) [µM] | IC50 (second compound 0.316 µM) [µM] | IC50 (second compound 1 µM) [µM] | IC50 (second compound 3.16 µM) [µM] | IC50 (second compound 10 µM) [µM] | viability, T/C [2] [%] | viability, T/C [3] [%] | viability, T/C [4] [%] | viability, T/C [5] [%] | viability, T/C [8] [%] | viability, T/C [9] [%] | viability, T/C [10] [%] | viability, T/C [11] [%] | viability, T/C [14] [%] | viability, T/C [15] [%] | viability, T/C [16] [%] | viability, T/C [17] [%] | viability, T/C [20] [%] | viability, T/C [21] [%] | viability, T/C [22] [%] | other results
1 | CC1COCCN1c1cc(-c2ccnn2C)c2ccnc(-c3ccn[nH]3)c2n1 (stereo not given) + CC1OCC2(CCN(c3cnc(Sc4ccnc(N)c4Cl)c(N)n3)CC2)C1N | > 3.16 | > 3.16 | 0.852 | 0.573 | 0.236 | 87.2 | 67.6 | 60.1 | 53 | 75.5 | 61.4 | 60.2 | 54.7 | 69.1 | 63 | 58.4 | 47.9 | 67.2 | 56.9 | 56 | viability, T/C [1]: 91.3%; viability, T/C [6]: 52.1%; viability, T/C [7]: 81%; viability, T/C [12]: 49.8%; viability, T/C [13]: 80.7%; viability, T/C [18]: 42.7%; viability, T/C [19]: 73.5%; viability, T/C [23]: 45.9%; viability, T/C [24]: 42.2%; viability, T/C [25]: 65.3%; viability, T/C [26]: 59.7%; viability, T/C [27]: 53.8%; viability, T/C [28]: 49.2%; viability, T/C [29]: 43.2%; viability, T/C [30]: 41%
2 | CCN1CCN(Cc2ccc(Nc3ncc(F)c(-c4cc(F)c5nc(C)n(C(C)C)c5c4)n3)nc2)CC1 + CC1OCC2(CCN(c3cnc(Sc4ccnc(N)c4Cl)c(N)n3)CC2)C1N | > 1 | > 1 | > 1 | > 1 | > 1 | 78 | 74.3 | 79.8 | 76.9 | 71.6 | 71.2 | 81.2 | 81 | 71.4 | 63.5 | 75.5 | 73.7 | 68.7 | 61.5 | 68.1 | viability, T/C (second compound 0.1 µM, first compound 0.00316 µM): 88.2%; viability, T/C [1]: 94.5%; viability, T/C (second compound 0.316 µM, first compound 0.00316 µM): 80%; viability, T/C [7]: 76.3%; viability, T/C (second compound 1 µM, first compound 0.00316 µM): 82.7%; viability, T/C [13]: 77.5%; viability, T/C (second compound 3.16 µM, first compound 0.00316 µM): 73.8%; viability, T/C [19]: 73%; viability, T/C [23]: 71%; viability, T/C (second compound 10 µM, first compound 0.00316 µM): 70.9%; viability, T/C [25]: 68.1%; viability, T/C [26]: 63.2%; viability, T/C [27]: 59.6%; viability, T/C [28]: 66%; viability, T/C [29]: 63.2%
3 | CCNC(=O)CC1N=C(c2ccc(Cl)cc2)c2cc(OC)ccc2-n2c(C)nnc21 (stereo not given) + CC1OCC2(CCN(c3cnc(Sc4ccnc(N)c4Cl)c(N)n3)CC2)C1N | 1 | 0.676 | 0.6 | 0.437 | 0.256 | 92.8 | 95 | 67.2 | 54.5 | 86.1 | 80 | 59.2 | 45.2 | 80.5 | 80 | 56.6 | 45 | 74 | 72.5 | 54.1 | viability, T/C [6]: 43.9%; viability, T/C [31]: 49.5%; viability, T/C [12]: 44%; viability, T/C [32]: 40.2%; viability, T/C [18]: 38.5%; viability, T/C [33]: 33.9%; viability, T/C [23]: 37.9%; viability, T/C [24]: 33.5%; viability, T/C [34]: 30.1%; viability, T/C [26]: 66.9%; viability, T/C [27]: 61.9%; viability, T/C [28]: 47.5%; viability, T/C [29]: 31.6%; viability, T/C [30]: 26.4%; viability, T/C [35]: 26.2%
4 | Cn1nccc1Nc1nccc(-c2cc3c(s2)C(C)(C)N(CCN2CCOCC2)C3=O)n1 + CC1OCC2(CCN(c3cnc(Sc4ccnc(N)c4Cl)c(N)n3)CC2)C1N | 0.33 | 0.239 | 0.223 | 0.191 | 0.105 | 87.4 | 68.4 | 50.4 | 38.2 | 82.8 | 65.9 | 43.2 | 35.7 | 74.9 | 61.7 | 44.8 | 33.3 | 64.7 | 59.9 | 42.2 | viability, T/C [6]: 32.8%; viability, T/C [31]: 28.8%; viability, T/C [12]: 30.7%; viability, T/C [32]: 26.6%; viability, T/C [18]: 27.2%; viability, T/C [33]: 26%; viability, T/C [23]: 28.8%; viability, T/C [24]: 25.8%; viability, T/C [34]: 24.1%; viability, T/C [26]: 57%; viability, T/C [27]: 51.4%; viability, T/C [28]: 35.9%; viability, T/C [29]: 26.6%; viability, T/C [30]: 22.4%; viability, T/C [35]: 20.6%
5 | CC(=O)OC12COC1CC(O)C1(C)C(=O)C(O)C3=C(C)C(OC(=O)C(O)C(NC(=O)OC(C)(C)C)c4ccccc4)CC(O)(C(OC(=O)c4ccccc4)C21)C3(C)C (stereo not given) + CNCc1ccccc1-c1csc(C(C)Nc2nc(C)nc3cc(OC)c(OC)cc23)c1 | > 3.16 | > 3.16 | > 3.16 | < 0.01 | < 0.01 | 93.5 | 97 | 96.9 | 105 | 92.2 | 96.2 | 98.9 | 101 | 97.9 | 104 | 101 | 103 | 93.9 | 1.4 | 0.54 | viability, T/C [1]: 81.2%; viability, T/C [6]: 104%; viability, T/C [7]: 85.6%; viability, T/C [12]: 100%; viability, T/C [13]: 84.6%; viability, T/C [18]: 105%; viability, T/C [19]: 0.36%; viability, T/C [23]: 13%; viability, T/C [24]: 110%; viability, T/C [25]: 0.32%; viability, T/C [26]: 0.17%; viability, T/C [27]: 0.21%; viability, T/C [28]: 0.2%; viability, T/C [29]: 0.22%; viability, T/C [30]: 0.28%

— PubChem BioAssay AID1963861 (Molecular Pharmacology Branch, DTP, NCI, 2024)
